Patent US12214079B2, “Micronized lipids” (MCAL Therapeutics Inc., priority 2021, dated 2025)
Converted amounts (≈) assume the structure as drawn. “Also recorded” adds a separate entry of the source. Where two headings read alike, the source gives them in different places.

Experiments:
[1] = system: naive dogs; assay: Non-GLP topical ocular dose range-finding toxicity and tolerability study (SPOTS scoring); format: in vivo; conditions: up to 10 mg/mL OU BID for 48 hours
Experimental: A non-GLP topical ocular administration dose range-finding pharmacology and toxicity study of MCAL-201 was conducted in naive dogs. The primary study objective was to assess the tolerability of topical ocular administration of MCAL-201 in dogs with a secondary objective to obtain data supporting pharmacological activity in healthy dogs.
The effects of vehicle and 0.1, 0.5, 1, 3 and 10 mg/mL MCAL-201 delivered as a 35 μL drop bilaterally QD (0.0035, 0.0175, 0.035, 0.105 and 0.35 mg/eye/day) were evaluated in Part I. The dosing regimen is summarized in 3.
(§1) Scoring of the ocular surface and anterior segment of the eye was performed using the SPOTS system by a board-certified veterinary ophthalmologist. SPOTS was performed for each concentration evaluated. To measure TBUT, fluorescein was instilled in the eye and the eye was manually closed and then gently opened to simulate a blink. The time interval between the opening of the eye and the first sign of disruption of the uniform tear film, as indicated by breaks in the fluorescein was recorded in seconds. The procedure was repeated three times on both eyes, first right than left eye. After BID dosing with 10 mg/mL MCAL-201, SPOTS was also performed at 48 hours after the last dose.

[2] = system: healthy dogs; assay: Tear film break-up time (TBUT) by fluorescein after topical ocular administration; format: in vivo, dog; conditions: 5 healthy adult dogs
Experimental: as §1

[3] = Isomeric stability (1,2-EPRG to 1,3-EPRG acyl migration), NMR analysis of isomeric content; format: physicochemical
Text: FIG. 4 provides NMR (nuclear magnetic resonance) spectral analysis of 1,3-EPRG and 1,2-EPRG isomeric content (1.15 mol % 1,3-EPRG) of MCAL-201 after jet mill micronization.
FIG. 5 provides NMR (nuclear magnetic resonance) spectral analysis of 1,3-EPRG and 1,2-EPRG isomeric content (0.0991 mol % 1,3-EPRG) of MCAL-201 after solid micronized MCAL-201suspension is stored at room temperature for 6 weeks.
This led to development of the delivery of solid MCAL-201 as a suspension of crystalline or amorphous micronized solid particle suspended in a water-based formulation isotonic with tear. Although MCAL-201 crystalline drug substance floated on phosphate buffered saline (PBS) it could be suspended following micronization to 1-10 micron particles which could be stably suspended in PBS with the aid of polysorbate 80 as a wetting agent and xanthan gum to adjust density and viscosity of the drug product.

[4] = General and physiochemical properties of MCAL-201 (solubility, hygroscopicity); format: physicochemical
Experimental: The general and physiochemical properties of MCAL-201 are: • 1,2-EPRG has a molecular weight of 611.05 g/mol • Empirical formula: C39H78O4 • Appearance: White powder • Particle size: 1-10 μm (post micronization) • Hygroscopicity: Low • Chirality: Racemic • Enantiomeric excess: 0 • Melting point: 57° C. • Solubility: Insoluble in water. Soluble in chloroform (40 mg/mL) and castor • oil (25 mg/mL)
However, preparation of a water soluble cyclodextrin inclusion complex of MCAL-201 was used in nonclinical efficacy studies. In addition, solutions of MCAL-201 in castor oil which can be emulsified to micron sized liquid particles in aqueous buffers can be used to deliver MCAL-201 directly to the tear film lipid layer.

CCCCCCCCCCCCCCCCCCCCOCC(CO)OC(=O)CCCCCCCCCCCCCCC (racemic) [MCAL-201, 1-O-eicosanyl-2-palmitoyl-rac-glycerol]
Ocular or systemic adverse events ([1]; any time or concentration evaluated): no ocular or systemic adverse events
Tolerability ([1]; topical ocular 35 μL drop): well tolerated
Effect on TBUT [2]: extended TBUT
1,3-EPRG isomeric content (NMR) ([3]; after jet mill micronization): 1.15 mol %
Chemical stability (acyl migration of palmitoyl from 2 to 3 position) ([3]; liquid solution phase): lacked long-term chemical stability
Time for which isomeric stability was demonstrated ([3]; micronized, in the suspension formulation at room temperature): 6 weeks
Stability to the micronization process ([3]; particles recovered from formulated drug by centrifugation and washing): chemical and isomeric stability
1,3-EPRG isomeric content (NMR) ([3]; solid micronized suspension stored at room temperature for 6 weeks): 0.0991 mol %
Isomeric stability ([3]; solid phase, compared with solution): far greater than in solution
Hygroscopicity [4]: Low
solubility ([4]; castor oil, oil or lipid, read-out: Solubility in castor oil): 25 mg/mL (≈ 40.9 mM)
solubility ([4]; chloroform, organic solvent or mixture, read-out: Solubility in chloroform): 40 mg/mL (≈ 65.5 mM)
Solubility in water ([4]; water): Insoluble; also recorded: extreme insolubility
